Measured values from PubChem BioAssay (NCI).
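96-well plates; 48 h exposure; 5 concentrations. Endpoints by linear interpolation between flanking doses. Not reached: highest tested concentration assigned. The concentration for full growth arrest is given as TGI.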

Key:
Experiment in all cases: inhibition of tumour cell growth, NCI panel, 48 h
[1] = system: 786-0 renal
[2] = system: A498 renal
[3] = system: A549 NSCLC
[4] = system: ACHN renal
[5] = system: BT-549 breast
[6] = system: CAKI-1 renal
[7] = system: CCRF-CEM leukemia
[8] = system: COLO 205 colon
[9] = system: DU-145 prostate
[10] = system: EKVX NSCLC
[11] = system: HCC-2998 colon
[12] = system: HCT-116 colon
[13] = system: HCT-15 colon
[14] = system: HL-60(TB) leukemia
[15] = system: HOP-62 NSCLC
[16] = system: HOP-92 NSCLC
[17] = system: HS 578T breast
[18] = system: HT29 colon
[19] = system: IGROV1 ovarian
[20] = system: K-562 leukemia
[21] = system: KM12 colon
[22] = system: LOX IMVI melanoma
[23] = system: M14 melanoma
[24] = system: MALME-3M melanoma
[25] = system: MCF7 breast
[26] = system: MDA-MB-231 breast
[27] = system: MDA-MB-435
[28] = system: MDA-N
[29] = system: MOLT-4 leukemia
[30] = system: NCI-H226 lung
[31] = system: NCI-H23 lung
[32] = system: NCI-H460 lung
[33] = system: NCI-H522 lung
[34] = system: NCI/ADR-RES ovarian
[35] = system: OVCAR-3 ovarian
[36] = system: OVCAR-4 ovarian
[37] = system: OVCAR-5 ovarian
[38] = system: OVCAR-8 ovarian
[39] = system: PC-3 prostate
[40] = system: RPMI-8226 leukemia
[41] = system: RXF 393 renal
[42] = system: SF-268 CNS
[43] = system: SF-295 CNS
[44] = system: SF-539 CNS
[45] = system: SK-MEL-2 melanoma
[46] = system: SK-MEL-28 melanoma
[47] = system: SK-MEL-5 melanoma
[48] = system: SK-OV-3 ovarian
[49] = system: SN12C renal
[50] = system: SNB-19 CNS
[51] = system: SNB-75 CNS
[52] = system: SR leukemia
[53] = system: SW-620 colon
[54] = system: T-47D breast
[55] = system: TK-10 renal
[56] = system: U251 CNS
[57] = system: UACC-257 melanoma
[58] = system: UACC-62 melanoma
[59] = system: UO-31 renal

Measured: TGI

C[C@]12CC[C@H]3[C@@H](CCC4=CC(=O)C=C[C@@]43OC(=O)C(F)(F)F)[C@@H]1CCC2=O
> 56 µM: [12]
> 83.5 µM: [1]
> 100 µM: all other assays above

O=C(O)CSc1ccccc1C(=O)O
46.8 µM: [11]
34.1 µM: [57]
38.1 µM: [32]
53.5 µM: [55]
> 100 µM: all other assays above
